# From PMC5209718, “Piscidin-1-analogs with double L- and D-lysine residues exhibited different conformations in lipopolysaccharide but comparable anti-endotoxin activities” (Scientific Reports, 2017)
# Read-outs that look alike come from different tables or passages of the source. Residues, ends and D or L forms follow the SMILES beside them.
# Legend:
# B. subtilis (ATCC 6633) = test: microbe, parasite or virus in culture; format: cell-based; conditions: for MIC: B. subtilis (ATCC 6633), means of three independent experiments each in duplicate ± SD, read-out: Minimum inhibitory conc. (MIC) against bacteria 9; for Minimum inhibitory conc. (MIC) against bacteria 9: ATCC 6633
# Source text: (§1) Piscidin-1 and its analogs were examined for bacterial growth-inhibiting activity in liquid cultures against Gram-positive bacteria including MRSA strains and Gram-negative bacteria (Table 2). […] The therapeutic index is a parameter that signify the specificity or selectivity of antimicrobial agents towards microorganisms over mammalian cells.
# (§2) Antibacterial assays with all the peptides were done in 96-well microtiter plates against different Gram-positive, Gram-negative and resistant bacteria as described earlier.
# [1] = system: K. pneumoniae (ATCC 27736); test: microbe, parasite or virus in culture; format: cell-based; conditions: for MIC: K. pneumoniae (ATCC 27736), means of three independent experiments each in duplicate ± SD, read-out: Minimum inhibitory conc. (MIC) against bacteria 10; for Minimum inhibitory conc. (MIC) against bacteria 10: ATCC 27736
# Source text: as §1, §2
# [2] = system: P. aeruginosa (ATCC BAA-427); test: microbe, parasite or virus in culture; format: cell-based; conditions: for MIC: P. aeruginosa (ATCC BAA-427), means of three independent experiments each in duplicate ± SD, read-out: Minimum inhibitory conc. (MIC) against bacteria 8; for Minimum inhibitory conc. (MIC) against bacteria 8: ATCC BAA-427
# Source text: as §1, §2
# [3] = system: Staphylococcus aureus (ATCC 25923); test: microbe, parasite or virus in culture; format: cell-based; conditions: for MIC: Staphylococcus aureus (ATCC 25923), means of three independent experiments each in duplicate ± SD, read-out: Minimum inhibitory conc. (MIC) against bacteria 1; for Minimum inhibitory conc. (MIC) against bacteria 1: ATCC 25923
# Source text: as §1, §2
# [4] = system: Staphylococcus aureus (ATCC 29213); test: microbe, parasite or virus in culture; format: cell-based; conditions: for MIC: Staphylococcus aureus (ATCC 29213), means of three independent experiments each in duplicate ± SD, read-out: Minimum inhibitory conc. (MIC) against bacteria 2; for Minimum inhibitory conc. (MIC) against bacteria 2: ATCC 29213
# Source text: as §1, §2
# [5] = system: Staphylococcus aureus (ATCC 1708 MRSA); test: microbe, parasite or virus in culture
# Source text: as §1, §2
# [6] = system: Staphylococcus aureus (ATCC 33592 Gentamycin Resistant); test: microbe, parasite or virus in culture
# Source text: as §1, §2
# [7] = system: Staphylococcus aureus (ATCC 700698 MRSA); test: microbe, parasite or virus in culture
# Source text: as §1, §2
# [8] = system: Staphylococcus aureus (ATCC 700699 MRSA); test: microbe, parasite or virus in culture
# Source text: as §1, §2
# [9] = system: Staphylococcus aureus (ATCC BAA-44 MRSA); test: microbe, parasite or virus in culture
# Source text: as §1, §2
# E. coli (ATCC 25922) = test: Antibacterial activity (MIC), liquid culture in 96-well microtiter plates; format: cell-based; conditions: read-out: Minimum inhibitory conc. (MIC) against bacteria 11
# Source text: as §1, §2
# [10] = system: human red blood cells (hRBCs); format: cell-based
# Source text: Cytotoxic activity of piscidin-1 and its designed analogs was examined by assaying the lysis of human red blood cells (hRBCs) and the viability of murine 3T3 cells in presence of these peptides. […] Introduction of D-lysine (dK)residues instead of threonine residues at 15th & 21st positions further reduced the haemolytic activity of piscidin-1 (Fig. 1A). Overall, haemolytic activity of these peptides against hRBCs followed the order piscidin-1 > T15K-piscidin-1 > T15dK-piscidin-1 > T15,21K-piscidin-1 > T15,21dK-piscidin-1. Viability of 3T3 cells as determined by MTT assay in the presence of these peptides followed the same trend as their haemolytic activity (Fig. 1B).
# Haemolytic activity of the peptides against human red blood cells in PBS was performed by assaying the ability of the peptides to lyse the hRBCs[24][48]. For this purpose, fresh human red blood cells (hRBCs) were collected in the presence of an anti-coagulant from a healthy volunteer. After washing the blood three times with PBS haemolytic activity of the peptides were determined as reported previously. Methodology of our experiment with human blood was in accordance with relevant guidelines and regulations of CSIR-central drug research institute ethics committee and was approved by it with approval No. CDRI/IEC/2014/A5. Further, informed consent was obtained from the healthy volunteer before collection of blood as per the guideline of our Institutional ethics committee.
# hRBCs = test: Localization of NBD-labelled peptides onto hRBCs by confocal microscopy, quantitative fluorescence; format: cell-based, human; conditions: NBD-labelled peptides ~10.0 μM, at least 25 cells analysed
# Source text: Figure 3 Confocal laser scanning microscopy to look into the localization of piscidin-1 and its selected analogs onto E. coli and hRBCs. […] Fluorescence and DIC images for treatment of different cells with each of the peptides are shown as marked on top of the respective panel. Panels (C) and (D) show the quantitative analysis of fluorescence intensity of E. coli and hRBCsbound to NBD-labeled piscidin-1, T15,21K-piscidin-1 and T15,21dK-piscidin-1 respectively.
# The localization of NBD-labeled piscidin-1, T15,21K-piscidin-1 and T15,21dK-piscidin-1 was also studied onto hRBCs by confocal microscopy. […] Quantitative analyses of the confocal microscopic fluorescence images were carried out. At least 25 cells from fluorescence images for each set of experiments were included in the analysis. The results are shown at the bottom of the fluorescence images of the respective cells (Fig. 3C and D).
# [11] = system: E. coli 0111:B4 LPS-administered mice; test: In vivo anti-LPS activity: survival of LPS-administered mice (septic shock); conditions: single dose 1.0 mg/kg i.p. after LPS 12 mg/kg; BALB/c mice; monitored 7 days
# Protocol: Septic shock in BALB/c mice was induced by intraperitoneal (i.p.) injection of E. coli LPS (12 mg/kg) followed by i.p. injection of T15,21K-piscidin-1 (0.5 mg/Kg) or T15,21dK-piscidin-1 (1 mg/Kg) or polymyxin B (1 mg/Kg) ~5 min later. Mice treated with only saline was taken as control. Survival of the animals (n = 5) was monitored for 7 days (***p < 0.0001, log-rank test).
# Polymyxin B was taken as the positive control and the experiments were performed as reported earlier[14][30][31].
# In vivo studies, treat ment of Mice
# Female BALB/c mice (National laboratory animal centre, central drug research institute,
# Lucknow) we re given a s tandard laborato r y diet an d water ad libitum and housed under controlled
# environmental conditions. The mice wer e approx imatel y 25 g each at the st art of experiments. All
# the mice were divided into experimental groups for the administration of LPS and peptides. Mice
# were treated with 12 m g/ kg E. coli 0111: B4 LPS i n presen ce and in absen ce of peptide in different
# experimental groups. The mice treated with saline onl y, in absence of LP S were considered as
# experimental controls. To study the efficacy of a peptide in neutralizing LPS-induced pro-
# inflammatory responses in mice ~5 min post LPS treatment, the respective peptide was
# administered i.p. at a site other than the one, used for LPS injection. […] Survival of mice was
# monitored for 7 da ys. Survival of mice was also mo nitored following th e treatment of onl y p eptides
# for investigating their toxic effects.
# [12] = means of three independent experiments each in duplicate ± SD
# [13] = Staphylococcus aureus (ATCC 1708 MRSA), means of three independent experiments each in duplicate ± SD
# [14] = Staphylococcus aureus (ATCC 33592 Gentamycin Resistant), means of three independent experiments each in duplicate ± SD
# [15] = Staphylococcus aureus (ATCC 700698 MRSA), means of three independent experiments each in duplicate ± SD
# [16] = Staphylococcus aureus (ATCC 700699 MRSA), means of three independent experiments each in duplicate ± SD
# [17] = Staphylococcus aureus (ATCC BAA-44 MRSA), means of three independent experiments each in duplicate ± SD
compound,measurement,setting,value
"CCn1cc(C(=O)O)c(=O)c2cc(F)c(N3CCNCC3)cc21 [Norfloxacin, reference compound]",MIC,"B. subtilis (ATCC 6633); Bacillus subtilis, ATCC6633",0.39 µM
same,MIC,"[1]; Klebsiella pneumoniae, ATCC27736",0.125 µM
same,MIC,"[2]; Pseudomonas aeruginosa, ATCCBAA427",2.19 µM
same,MIC,[3]; ATCC25923,1.22 µM
same,MIC,[4]; ATCC29213,2.44 µM
same,MIC,"[5]; Staphylococcus aureus, ATCC1708|MRSA, read-out: Minimum inhibitory conc. (MIC) against bacteria 7",> 150 µM
same,MIC,"[6]; Staphylococcus aureus, ATCC33592, read-out: Minimum inhibitory conc. (MIC) against bacteria 4",2.44 µM
same,MIC,"[7]; Staphylococcus aureus, ATCC700698|MRSA, read-out: Minimum inhibitory conc. (MIC) against bacteria 6",> 150 µM
same,MIC,"[8]; Staphylococcus aureus, ATCC700699|MRSA, read-out: Minimum inhibitory conc. (MIC) against bacteria 3",> 150 µM
same,MIC,"[9]; Staphylococcus aureus, ATCCBAA44|MRSA, read-out: Minimum inhibitory conc. (MIC) against bacteria 5",39 µM
same,MIC,"E. coli (ATCC 25922); Escherichia coli, ATCC25922, means of three independent experiments each in duplicate ± SD",0.125 µM
CC[C@H](C)[C@H](NC(=O)CNC(=O)[C@H](CCCNC(=N)N)NC(=O)[C@H](Cc1ccccc1)NC(=O)[C@@H](NC(=O)[C@H](Cc1c[nH]cn1)NC(=O)[C@H](Cc1c[nH]cn1)NC(=O)[C@H](Cc1ccccc1)NC(=O)[C@@H](N)Cc1ccccc1)[C@@H](C)CC)C(=O)N[C@H](C(=O)N[C@@H](Cc1c[nH]cn1)C(=O)N[C@H](C(=O)NCC(=O)N[C@@H](CCCCN)C(=O)N[C@H](CCCCN)C(=O)N[C@H](C(=O)N[C@@H](Cc1c[nH]cn1)C(=O)N[C@@H](CCCNC(=N)N)C(=O)N[C@@H](CC(C)C)C(=O)N[C@H](C(=O)N[C@H](C(=O)NCC(N)=O)[C@@H](C)O)C(C)C)[C@@H](C)CC)C(C)C)C(C)C [T15dK Piscidin-1] (HELM PEPTIDE1{F.F.H.H.I.F.R.G.I.V.H.V.G.K.[dK].I.H.R.L.V.T.G.[am]}$$$$V2.0),Minimum inhibitory conc. (MIC) against bacteria 9,B. subtilis (ATCC 6633),9.0 ± 1.3 µM
same,Minimum inhibitory conc. (MIC) against bacteria 10,[1],3.6 ± 0.5 µM
same,Minimum inhibitory conc. (MIC) against bacteria 8,[2],7.5 ± 1.0 µM
same,Minimum inhibitory conc. (MIC) against bacteria 1,[3],2.5 ± 0.4 µM
same,Minimum inhibitory conc. (MIC) against bacteria 2,[4],2.5 ± 0.4 µM
same,Minimum inhibitory conc. (MIC) against bacteria 7,[5]; ATCC 1708,2.5 ± 0.4 µM
same,Minimum inhibitory conc. (MIC) against bacteria 4,[6]; ATCC 33592,2.5 ± 0.4 µM
same,Minimum inhibitory conc. (MIC) against bacteria 6,[7]; ATCC 700698,5.0 ± 0.7 µM
same,Minimum inhibitory conc. (MIC) against bacteria 3,[8]; ATCC 700699,10.0 ± 1.4 µM
same,Minimum inhibitory conc. (MIC) against bacteria 5,[9]; ATCC BAA-44,2.5 ± 0.4 µM
same,MIC,E. coli (ATCC 25922); [12],4.0 µM
same,"HC50, peptide concentration leading to 50% lysis of human RBC",[10],125 µM
Gentamycin [reference compound],MIC,B. subtilis (ATCC 6633),0.048 µM
same,MIC,[1],3.26 µM
same,MIC,[2],1.46 µM
same,MIC,[3],0.8 µM
same,MIC,[4],1.6 µM
same,Minimum inhibitory conc. (MIC) against bacteria 7,[5]; [13],3.2 µM
same,Minimum inhibitory conc. (MIC) against bacteria 4,[6]; [14],>100 µM
same,Minimum inhibitory conc. (MIC) against bacteria 6,[7]; [15],>100 µM
same,Minimum inhibitory conc. (MIC) against bacteria 3,[8]; [16],>100 µM
same,Minimum inhibitory conc. (MIC) against bacteria 5,[9]; [17],>50 µM
same,MIC,E. coli (ATCC 25922); [12],3.14 µM
H-FFHHIFRGIVHVGKKIHRLVTG-NH2 [T15K Piscidin-1],Minimum inhibitory conc. (MIC) against bacteria 9,B. subtilis (ATCC 6633),8.5 ± 1.2 µM
same,Minimum inhibitory conc. (MIC) against bacteria 10,[1],3.2 ± 0.4 µM
same,Minimum inhibitory conc. (MIC) against bacteria 8,[2],7.0 ± 1.0 µM
same,Minimum inhibitory conc. (MIC) against bacteria 1,[3],1.25 ± 0.3 µM
same,Minimum inhibitory conc. (MIC) against bacteria 2,[4],2.5 ± 0.4 µM
same,Minimum inhibitory conc. (MIC) against bacteria 7,[5]; [13],2.5 ± 0.4 µM
same,Minimum inhibitory conc. (MIC) against bacteria 4,[6]; [14],1.25 ± 0.3 µM
same,Minimum inhibitory conc. (MIC) against bacteria 6,[7]; [15],2.5 ± 0.4 µM
same,Minimum inhibitory conc. (MIC) against bacteria 3,[8]; [16],2.5 ± 0.4 µM
same,Minimum inhibitory conc. (MIC) against bacteria 5,[9]; [17],1.25 ± 0.3 µM
same,MIC,E. coli (ATCC 25922); [12],3.5 µM
same,"HC50, peptide concentration leading to 50% lysis of human RBC",[10],46 µM
H-FFHHIFRGIVHVGKTIHRLVTG-NH2 [Piscidin-1],Minimum inhibitory conc. (MIC) against bacteria 9,B. subtilis (ATCC 6633),8.0 ± 1.0 µM
same,Minimum inhibitory conc. (MIC) against bacteria 10,[1],3.8 ± 0.5 µM
same,Minimum inhibitory conc. (MIC) against bacteria 8,[2],6.0 ± 0.7 µM
same,Minimum inhibitory conc. (MIC) against bacteria 1,[3],1.25 ± 0.3 µM
same,Minimum inhibitory conc. (MIC) against bacteria 2,[4],2.5 ± 0.4 µM
same,Minimum inhibitory conc. (MIC) against bacteria 7,[5]; ATCC 1708,2.5 ± 0.4 µM
same,Minimum inhibitory conc. (MIC) against bacteria 4,[6]; ATCC 33592,2.5 ± 0.4 µM
same,Minimum inhibitory conc. (MIC) against bacteria 6,[7]; ATCC 700698,2.5 ± 0.4 µM
same,Minimum inhibitory conc. (MIC) against bacteria 3,[8]; ATCC 700699,5.0 ± 0.7 µM
same,Minimum inhibitory conc. (MIC) against bacteria 5,[9]; ATCC BAA-44,2.5 ± 0.4 µM
same,MIC,E. coli (ATCC 25922); [12],3.0 µM
same,"HC50, peptide concentration leading to 50% lysis of human RBC",[10],15 µM
"X-FFHHIFRGIVHVGKKIHRLVKG–amide [NBD-T15,21K-piscidin-1, T15,21K-piscidin-1 labelled at its N-terminus by NBD]",fold lower fluorescence of hRBCs bound to peptide than cells bound to NBD-labeled piscidin-1,hRBCs,about 5 fold
"X-FFHHIFRGIVHVGKkIHRLVkG–amide [NBD-T15,21dK-piscidin-1, T15,21dK-piscidin-1 labelled at its N-terminus by NBD]",fold lower fluorescence of hRBCs bound to peptide than cells bound to NBD-labeled piscidin-1,hRBCs,~7.5 fold
polymyxin B [reference compound],mortality rate of LPS-administered mice,[11],zero
